Data reported in patent US9440982B2 (Eolas Therapeutics, Inc., priority 2012, dated 2016).

Experiments:
OX1 = target: T1, OX1 (Homo sapiens, UniProt O43613); test: Orexin receptor cell-based functional assay, [Ca2+]i by FLIPR, CHO-OX1 cells; details: CHO-OX1 cells, [Ca2+]i by FLIPR, antagonist dose-range 0.1 nM-10 μM, EC90 of OXA; read-out: OX1
T1 construct: expressed in transfected cells; host or cells: CHO (CHO-OX1, kept under selection antibiotic)
T1 sequence (O43613 1-425): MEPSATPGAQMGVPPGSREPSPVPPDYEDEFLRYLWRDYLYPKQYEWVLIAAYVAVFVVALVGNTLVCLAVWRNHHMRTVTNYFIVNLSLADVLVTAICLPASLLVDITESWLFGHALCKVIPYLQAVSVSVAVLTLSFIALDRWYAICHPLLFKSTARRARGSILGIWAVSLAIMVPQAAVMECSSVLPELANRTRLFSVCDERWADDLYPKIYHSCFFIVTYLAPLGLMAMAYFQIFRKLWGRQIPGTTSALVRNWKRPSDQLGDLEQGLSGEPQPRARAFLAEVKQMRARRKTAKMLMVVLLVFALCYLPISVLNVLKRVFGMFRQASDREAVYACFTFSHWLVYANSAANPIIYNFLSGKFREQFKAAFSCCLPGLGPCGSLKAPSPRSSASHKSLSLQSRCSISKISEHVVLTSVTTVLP
Outline: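 CHO cells expressing human OX1 or OX2 loaded with calcium dye plus 2.5 mM probenecid at 37° C (calcium4, 30 min, or calcium6, 2 h), then exposed to compounds (0.1 nM-10 μM) for 30 min. Intracellular Ca2+ measured on FLIPR; antagonist format.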

CYP3A4 = target: T2, CYP3A4 (Homo sapiens, UniProt P08684); test: Cytochrome P450 inhibition assay (midazolam hydroxylation); assay type: in vitro ADME; details: human, human liver microsomes, probe midazolam (hydroxylation to 1′-hydroxymidazolam), 10 μM test compound, midazolam at approximately its Km
T2 construct: pre-incubated with human liver microsomes and NADPH; from tissue; host or cells: human liver microsomes
T2 sequence (P08684 whole entry): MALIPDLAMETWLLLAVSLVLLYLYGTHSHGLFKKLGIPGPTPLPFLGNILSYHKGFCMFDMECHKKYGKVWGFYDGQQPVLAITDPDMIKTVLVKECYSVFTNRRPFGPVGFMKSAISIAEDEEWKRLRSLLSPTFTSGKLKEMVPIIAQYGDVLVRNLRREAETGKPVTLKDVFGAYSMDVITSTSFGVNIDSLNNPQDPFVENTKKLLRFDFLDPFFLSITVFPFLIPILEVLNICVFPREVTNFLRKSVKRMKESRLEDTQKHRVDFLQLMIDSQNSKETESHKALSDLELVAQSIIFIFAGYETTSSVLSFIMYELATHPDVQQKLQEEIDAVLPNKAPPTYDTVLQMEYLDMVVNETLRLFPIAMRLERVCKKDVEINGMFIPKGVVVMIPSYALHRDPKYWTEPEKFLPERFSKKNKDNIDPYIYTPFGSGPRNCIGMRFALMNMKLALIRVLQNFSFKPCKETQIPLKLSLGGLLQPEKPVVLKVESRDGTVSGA
Outline: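 Human liver microsomes; CYP3A4 activity as midazolam 1′-hydroxylation with substrate near Km, with or without 10 μM test compound, read as percent inhibition. For time-dependent inhibition, parallel samples were preincubated 30 min with NADPH before substrate, and percent inhibition compared with non-preincubated samples.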

Row | Compound | IC50 (OX1) [nM] | inhibition at 10 µM (CYP3A4) [%]
1 | C[C@@H]1CCCN(C(=O)c2cc(F)ccc2-n2nccn2)[C@@H]1CNc1ccc(C(F)(F)F)nn1 [Example A208, (5-Fluoro-2-(2H-1,2,3-triazol-2-yl)phenyl)((2S,3R)-3-methyl-2-(((6-(trifluoromethyl)pyridazin-3-yl)amino)methyl)piperidin-1-yl)methanone] | 200 | 59
2 | C[C@@H]1CCCN(C(=O)c2cc(F)ccc2-n2nccn2)[C@@H]1CNc1ccc(Cl)cn1 [Example A209, ((2S,3R)-2-(((5-Chloropyridin-2-yl)amino)methyl)-3-methylpiperidin-1-yl)(5-fluoro-2-(2H-1,2,3-triazol-2-yl)phenyl)methanone] | 45 | 69
3 | C[C@@H]1CCCN(C(=O)c2ccccc2-n2nccn2)[C@@H]1CNc1nc2ccccc2o1 [Example A218, (2-(2H-1,2,3-Triazol-2-yl)phenyl)((2S,3R)-2-((benzo[d]oxazol-2-ylamino)methyl)-3-methylpiperidin-1-yl)methanone] | 130 | 75
4 | Cc1ccc(-n2nccn2)c(C(=O)N2CCC[C@@H](C)[C@H]2CNc2ncc3cc(C)ccc3n2)c1 [Example A220, ((2S,3R)-3-Methyl-2-(((6-methylquinazolin-2-yl)amino)methyl)piperidin-1-yl)(5-methyl-2-(2H-1,2,3-triazol-2-yl)phenyl)methanone] | 11 | 68
5 | C[C@@H]1CCCN(C(=O)c2cc(F)ccc2-n2nccn2)[C@@H]1CNc1ncc(Cl)cn1 [Example A221, ((2S,3R)-2-(((5-Chloropyrimidin-2-yl)amino)methyl)-3-methylpiperidin-1-yl)(5-fluoro-2-(2H-1,2,3-triazol-2-yl)phenyl)methanone] | 32 | 53
6 | Cc1ccc(-c2cccnc2)c(C(=O)N2CCC[C@@H](C)[C@H]2CNc2ncc(C(F)(F)F)cn2)n1 [Example A223, ((2S,3R)-3-Methyl-2-(((5-(trifluoromethyl)pyrimidin-2-yl)amino)methyl)piperidin-1-yl)(6-methyl-[3,3′-bipyridin]-2-yl)methanone] | 37 | 93
7 | C[C@@H]1CCCN(C(=O)c2cc(F)ccc2-c2ncccn2)[C@@H]1CNc1ncc(C(F)(F)F)cn1 [Example A227, (5-Fluoro-2-(pyrimidin-2-yl)phenyl)((2S,3R)-3-methyl-2-(((5-(trifluoromethyl)pyrimidin-2-yl)amino)methyl)piperidin-1-yl)methanone] | 2 | 59
8 | C[C@@H]1CCCN(C(=O)c2cccc(F)c2-c2ncccn2)[C@@H]1CNc1ccc(C(F)(F)F)cn1 [Example A233, (3-Fluoro-2-(pyrimidin-2-yl)phenyl)((2S,3R)-3-methyl-2-(((5-(trifluoromethyl)pyridin-2-yl)amino)methyl)piperidin-1-yl)methanone] | 5 | 72
9 | C[C@@H]1CCCN(C(=O)c2c(F)cccc2-c2ncccn2)[C@@H]1CNc1ncc(Cl)cn1 [Example A239, ((2S,3R)-2-(((5-Chloropyrimidin-2-yl)amino)methyl)-3-methylpiperidin-1-yl)(2-fluoro-6-(pyrimidin-2-yl)phenyl)methanone] | 83 | 50
10 | C[C@@H]1CCCN(C(=O)c2cc(F)c(F)cc2-c2ncccn2)[C@@H]1CNc1ncc(C(F)(F)F)cn1 [Example A243, (4,5-Difluoro-2-(pyrimidin-2-yl)phenyl)((2S,3R)-3-methyl-2-(((5-(trifluoromethyl)pyrimidin-2-yl)amino)methyl)piperidin-1-yl)methanone] | 75 | 68
11 | C[C@@H]1CCCN(C(=O)c2cc(F)c(F)cc2-n2nccn2)[C@@H]1CNc1ncc(Cl)cn1 [Example A247, ((2S,3R)-2-(((5-Chloropyrimidin-2-yl)amino)methyl)-3-methylpiperidin-1-yl)(4,5-difluoro-2-(2H-1,2,3-triazol-2-yl)phenyl)methanone] | > 100 | 65
12 | C[C@@H]1CCCN(C(=O)c2cc(F)c(F)cc2-n2nccn2)[C@@H]1CNc1ncc(C(F)(F)F)cn1 [Example A248, (4,5-Difluoro-2-(2H-1,2,3-triazol-2-yl)phenyl)((2S,3R)-3-methyl-2-(((5-(trifluoromethyl)pyrimidin-2-yl)amino)methyl)piperidin-1-yl)methanone] | 20 | 67
13 | C[C@@H]1CCCN(C(=O)c2cc(F)c(F)cc2-n2nccn2)[C@@H]1CNc1ccc(C(F)(F)F)cn1 [Example A249, (4,5-Difluoro-2-(2H-1,2,3-triazol-2-yl)phenyl)((2S,3R)-3-methyl-2-(((5-(trifluoromethyl)pyridin-2-yl)amino)methyl)piperidin-1-yl)methanone] | 18 | 83

More lines, now with the values ahead:

Row | IC50 (OX1) [nM] | inhibition at 10 µM (CYP3A4) [%] | Compound
14 | 18 | 44 | C[C@@H]1CCCN(C(=O)c2cc(Cl)ccc2-c2ncccn2)[C@@H]1CNc1ncc(Cl)cn1 [Example A202, (5-Chloro-2-(pyrimidin-2-yl)phenyl)((2S,3R)-2-(((5-chloropyrimidin-2-yl)amino)methyl)-3-methylpiperidin-1-yl)methanone]
15 | 21 | 70 | C[C@@H]1CCCN(C(=O)c2cc(Cl)ccc2-c2ncccn2)[C@@H]1CNc1ccc(Cl)cn1 [Example A203, (5-Chloro-2-(pyrimidin-2-yl)phenyl)((2S,3R)-2-(((5-chloropyridin-2-yl)amino)methyl)-3-methylpiperidin-1-yl)methanone]
16 | 3 | 60 | Cc1ccc(-c2ncccn2)c(C(=O)N2CCC[C@@H](C)[C@H]2CNc2nc3ccccc3o2)c1 [Example A204, ((2S,3R)-2-((Benzo[d]oxazol-2-ylamino)methyl)-3-methylpiperidin-1-yl)(5-methyl-2-(pyrimidin-2-yl)phenyl)methanone]
17 | 11 | 72 | Cc1ccc(-c2ncccn2)c(C(=O)N2CCC[C@@H](C)[C@H]2CNc2nc3cc(Cl)ccc3o2)c1 [Example A205, ((2S,3R)-2-(((5-Chlorobenzo[d]oxazol-2-yl)amino)methyl)-3-methylpiperidin-1-yl)(5-methyl-2-(pyrimidin-2-yl)phenyl)methanone]
18 | 6 | 58 | Cc1ccc(-c2ncccn2)c(C(=O)N2CCC[C@@H](C)[C@H]2CNc2nc3cc(F)ccc3o2)c1 [Example A206, ((2S,3R)-2-(((5-Fluorobenzo[d]oxazol-2-yl)amino)methyl)-3-methylpiperidin-1-yl)(5-methyl-2-(pyrimidin-2-yl)phenyl)methanone]
19 | 5 | 49 | Cc1ccc(-c2ncccn2)c(C(=O)N2CCC[C@@H](C)[C@H]2CNc2ncc(C(F)(F)F)cn2)c1 [Example A212, ((2S,3R)-3-Methyl-2-(((5-(trifluoromethyl)pyrimidin-2-yl)amino)methyl)piperidin-1-yl)(5-methyl-2-(pyrimidin-2-yl)phenyl)methanone]
20 | 2600 | 84 | C[C@@H]1CCCN(C(=O)c2ccccc2-n2nccn2)[C@@H]1CNc1nc2cc(Cl)ccc2o1 [Example A219, (2-(2H-1,2,3-Triazol-2-yl)phenyl)((2S,3R)-2-(((5-chlorobenzo[d]oxazol-2-yl)amino)methyl)-3-methylpiperidin-1-yl)methanone]
21 | 1 | 72 | C[C@@H]1CCCN(C(=O)c2cc(F)ccc2-c2ncccn2)[C@@H]1CNc1ccc(C(F)(F)F)cn1 [Example A228, (5-Fluoro-2-(pyrimidin-2-yl)phenyl)((2S,3R)-3-methyl-2-(((5-(trifluoromethyl)pyridin-2-yl)amino)methyl)piperidin-1-yl)methanone]
22 | 4 | 72 | C[C@@H]1CCCN(C(=O)c2cc(F)ccc2-c2ncccn2)[C@@H]1CNc1ccc(Cl)cn1 [Example A229, ((2S,3R)-2-(((5-Chloropyridin-2-yl)amino)methyl)-3-methylpiperidin-1-yl)(5-fluoro-2-(pyrimidin-2-yl)phenyl)methanone]
23 | 17 | 54 | C[C@@H]1CCCN(C(=O)c2cccc(F)c2-c2ncccn2)[C@@H]1CNc1ncc(Cl)cn1 [Example A231, (3-Fluoro-2-(pyrimidin-2-yl)phenyl)((2S,3R)-3-methyl-2-(((5-chloropyrimidin-2-yl)amino)methyl)piperidin-1-yl)methanone]
24 | 1300 | 70 | C[C@@H]1CCCN(C(=O)c2cc(F)c(F)cc2-c2ncccn2)[C@@H]1CNc1ncc(Cl)cn1 [Example A244, ((2S,3R)-2-(((5-Chloropyrimidin-2-yl)amino)methyl)-3-methylpiperidin-1-yl) (4,5-difluoro-2-(pyrimidin-2-yl)phenyl)methanone]
